# Laboratory results from US9663465B2, “Acetylcholinesterase inhibitors and promnesiant serotonin 5-HT4 receptor agonists, their methods of preparation and the pharmaceutical compositions containing the same” (UNIVERSITE DE CAEN, priority 2013, dated 2017).
# Read-outs that look alike come from different tables or passages of the source.
# Assays:
# 5-HT4 receptors = 5-HT4 receptors (Cavia porcellus (Guinea pig), UniProt O70528); assay: Affinity as regards 5-HT4 receptors: competition against [3H]-GR113808 on striatal membranes; format: binding
# 5-HT4 receptors, sequence (O70528 whole entry): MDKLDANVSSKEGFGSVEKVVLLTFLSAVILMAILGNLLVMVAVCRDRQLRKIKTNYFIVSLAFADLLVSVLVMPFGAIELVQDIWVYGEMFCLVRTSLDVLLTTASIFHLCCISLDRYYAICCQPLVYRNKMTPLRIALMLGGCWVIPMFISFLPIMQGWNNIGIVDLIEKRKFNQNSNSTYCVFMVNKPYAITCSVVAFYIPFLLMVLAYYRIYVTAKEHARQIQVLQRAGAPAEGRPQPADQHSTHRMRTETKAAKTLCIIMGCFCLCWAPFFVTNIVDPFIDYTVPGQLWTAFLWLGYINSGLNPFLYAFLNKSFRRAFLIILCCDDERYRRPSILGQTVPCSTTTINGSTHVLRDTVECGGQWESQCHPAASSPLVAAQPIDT
# [1] = biological target: human acetylcholinesterase (Homo sapiens (Human), UniProt P22303); assay: biochemical; format: biochemical; settings: acetylcholinesterase from human erythrocytes
# human acetylcholinesterase, sequence (P22303 32-574 with tags or gaps limits assumed): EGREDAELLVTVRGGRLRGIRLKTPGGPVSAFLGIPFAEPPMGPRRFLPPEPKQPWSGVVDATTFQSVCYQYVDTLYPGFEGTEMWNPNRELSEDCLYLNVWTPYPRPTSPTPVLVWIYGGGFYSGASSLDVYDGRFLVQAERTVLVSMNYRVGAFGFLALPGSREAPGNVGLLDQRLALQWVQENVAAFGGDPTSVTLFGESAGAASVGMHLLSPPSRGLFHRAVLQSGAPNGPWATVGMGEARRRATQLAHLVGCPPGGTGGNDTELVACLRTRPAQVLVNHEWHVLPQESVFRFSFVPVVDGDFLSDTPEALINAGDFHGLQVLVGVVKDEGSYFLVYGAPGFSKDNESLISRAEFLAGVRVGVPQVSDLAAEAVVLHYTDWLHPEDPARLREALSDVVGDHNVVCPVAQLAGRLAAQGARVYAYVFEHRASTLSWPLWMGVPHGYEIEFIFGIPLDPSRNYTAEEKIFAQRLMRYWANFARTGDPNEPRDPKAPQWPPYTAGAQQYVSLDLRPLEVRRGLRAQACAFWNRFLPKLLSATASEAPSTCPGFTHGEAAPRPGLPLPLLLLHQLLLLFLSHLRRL
# Experimental: 100 μL of a 0.3 mM 5,5-dithiobis(2-nitrobenzoic acid) (DTNB) solution in a pH 7.4 phosphate buffer are introduced into a 96-well plate, followed by 50 μL of compound to be tested in solution in DMSO and 50 μL of enzyme solution. After 5 min of preincubation, the reaction is initiated by injecting 50 μL of 10 mM acetylthiocholine iodide solution. […] Donepezil is used as a reference product.
# [2] = biological target: peripheral site of eeAChE (Electrophorus electricus (Electric eel) (Gymnotus electricus), UniProt O42275); format: binding
# peripheral site of eeAChE, sequence (O42275 whole entry, looked up): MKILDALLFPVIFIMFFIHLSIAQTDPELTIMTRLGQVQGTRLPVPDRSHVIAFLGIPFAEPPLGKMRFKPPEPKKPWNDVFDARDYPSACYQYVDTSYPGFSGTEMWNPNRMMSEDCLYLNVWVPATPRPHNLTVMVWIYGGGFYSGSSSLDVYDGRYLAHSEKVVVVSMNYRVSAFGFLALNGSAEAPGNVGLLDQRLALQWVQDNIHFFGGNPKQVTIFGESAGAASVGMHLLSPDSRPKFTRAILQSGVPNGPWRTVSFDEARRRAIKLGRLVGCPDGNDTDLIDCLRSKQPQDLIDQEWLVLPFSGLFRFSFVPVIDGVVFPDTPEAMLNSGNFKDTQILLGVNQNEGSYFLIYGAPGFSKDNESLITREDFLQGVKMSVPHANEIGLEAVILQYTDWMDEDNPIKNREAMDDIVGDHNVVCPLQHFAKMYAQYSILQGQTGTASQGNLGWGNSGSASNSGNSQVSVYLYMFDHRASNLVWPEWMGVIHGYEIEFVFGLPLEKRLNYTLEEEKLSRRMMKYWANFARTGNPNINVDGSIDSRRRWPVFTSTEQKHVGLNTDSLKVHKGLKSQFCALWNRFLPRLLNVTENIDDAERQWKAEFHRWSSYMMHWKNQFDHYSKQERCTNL
# Experimental: When propidium diiodide binds to the peripheral site of AChE, it produces an increase in fluorescence which can be used as proof of its binding to the enzyme. Fluorescence measurements are made in 200 μL of solution in 96-well plates using a Tecan Infinite M2000 microplate reader. […] 50 μL of micromolar solution of propidium diiodide are added before measuring fluorescence. […] Each test is repeated at least three times.
# 5-HT4 receptor = 5-HT4 receptor (Homo sapiens (Human), UniProt Q13639); assay: Agonist nature as regards the 5-HT4 receptor: accumulation of intracellular cyclic AMP in stably transfected CHO cells; format: cell-based; settings: percentage of agonist effect in relation to serotonin
# 5-HT4 receptor, sequence (Q13639 whole entry): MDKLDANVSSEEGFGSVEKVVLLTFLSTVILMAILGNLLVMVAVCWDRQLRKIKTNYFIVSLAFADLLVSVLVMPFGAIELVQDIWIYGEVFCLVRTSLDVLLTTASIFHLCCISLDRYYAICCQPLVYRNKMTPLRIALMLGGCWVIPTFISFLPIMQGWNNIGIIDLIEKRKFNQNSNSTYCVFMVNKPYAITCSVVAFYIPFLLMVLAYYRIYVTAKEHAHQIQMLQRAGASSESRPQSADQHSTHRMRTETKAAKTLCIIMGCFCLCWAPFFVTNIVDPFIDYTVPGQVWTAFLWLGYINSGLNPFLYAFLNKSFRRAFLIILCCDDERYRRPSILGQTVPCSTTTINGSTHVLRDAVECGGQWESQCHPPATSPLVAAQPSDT
# male NMRI mice = assay: Object recognition test; format: in vivo; settings: intraperitoneal, 30 minutes before the acquisition session
# Experimental: The tests are performed using male NMRI mice of around 3 months old at the time of the tests.
# The object recognition test is based on the spontaneous preference of rodents for novelty, without bringing food deprivation or electric shock into play.
# The device comprises a square PVC enclosure (33×33×20 cm, illuminated at 10 lux in the center) with black surfaces. The test is performed in 2 phases: one habituation phase, allowing the animals to become habituated to the test environment (enclosure, room, experimenter), the other a memory performance assessment phase. A camera is positioned above the device and connected to a video-tracking system (ViewPoint®). During the behavioral tests, the experimenter is not present in the experimentation room but remains in an adjacent room that houses the video-tracking system.
# After a habituation phase (Day 1, individual exposure for 5 minutes to the open-field with no objects), the memory performance assessment phase begins on the 2nd day and is made up of 2 sessions, one the presentation session and the other the test session. […] The exploration time of each object, A1 and A2 respectively, as well as the time required to achieve the exploration criterion are measured. […] The time required to achieve the exploration criterion as well as the exploration time of the new object are measured and the latter is compared to the chance level (15 s). […]
# [3] = 10^-5 M solution of compound, eeAChE, propidium diiodide fluorescence
Structure (SMILES),"% Propidium Displacement [2, 3]",Agonistic effect % (5-HT4 receptor),other results
"COc1cc(N)c(Cl)cc1C(=O)NCC1CCN(CC2CCCCC2)CC1 [Compound 17, 4-amino-5-chloro-[[1-(cyclohexylmethyl)-4-piperidyl]methyl]-2-methoxybenzamide]",–,–,"Ki (5-HT4 receptors; 0.1 nM [3H]-GR113808, guinea pig striatal membranes, read-out: Ki): 2.3 nM; IC50 [1]: 3730 nM"
"Nc1cc(OCCF)c(C(=O)CCC2CCN(CC3CCCCC3)CC2)cc1Cl [Compound 23, 1-[4-amino-5-chloro-2-(2-fluoroéthoxy)phenyl]-3-[1-(cyclohexylmethyl)-4-piperidyl]propan-1-one]",22%,–,–
"COCCCN1CCC(NC(=O)c2cc(Cl)c(N)c3c2OCC3)CC1 [prucalopride, reference compound]",–,100%,–
"COc1cc(N)c(F)cc1C(=O)CCC1CCN(CC2CCCCC2)CC1 [Compound 5, 1-(4-amino-5-fluoro-2-methoxyphenyl)-3-[1-(cyclohexylmethyl)-4-piperidyl]propan-1-one]",22%,16%,–
"COc1cc(N)c(Cl)cc1C(=O)CCC1CCN(CCC2CCCCC2)CC1 [Compound 16, 1-(4-amino-5-chloro-2-methoxyphenyl)-3-[1-(cyclohexylethyl)-4-piperidyl]propan-1-one]",–,–,% Propidium Displacement [2]: 21%
"COc1cc(N)c(Cl)cc1C(=O)CCC1CCN(CC2CCCCCC2)CC1 [Compound 12, 1-(4-amino-5-chloro-2-methoxyphenyl)-3-[1-(cycloheptylmethyl)-4-piperidyl]propan-1-one]",20%,21%,–
"CCCCN1CCC(CCC(=O)c2cc(Br)c(N)cc2OC)CC1 [Compound 2, 1-(4-amino-5-bromo-2-methoxyphenyl)-3-[1-butyl-4-piperidyl]propan-1-one]",–,–,Ki (5-HT4 receptors): 8.9 nM; IC50 [1]: 445 nM
"COc1cc(N)c(Cl)cc1C(=O)CCC1CCN(CC2CCCCC2)CC1 [Compound 9, 1-(4-amino-5-chloro-2-methoxyphenyl)-3-[1-(cyclohexylmethyl)-4-piperidyl]propan-1-one]",22%,22%,dose of maximum effect on object recognition performance (male NMRI mice): 0.3 mg/kg; object recognition performance compared to the control batch (male NMRI mice; 24 hours intersession): improvement in object recognition performance compared to the control batch
"COc1cc(N)c(Cl)cc1C(=O)CCC1CCN(CC2CCCC2)CC1 [Compound 8, 1-(4-amino-5-chloro-2-methoxyphenyl)-3-[1-(cyclopentylmethyl)-4-piperidyl]propan-1-one]",20%,12%,–
"COc1cc(N)c(Br)cc1C(=O)CCC1CCN(CC2CCCCC2)CC1 [Compound 14, 1-(4-amino-5-bromo-2-methoxyphenyl)-3-[1-(cyclohexylmethyl)-4-piperidyl]propan-1-one]",–,–,% Propidium Displacement [2]: 20%
